Assay results published in US20050112131A1, “Methods of adjuvant photodynamic therapy to enhance radiation sensitization” (priority 2002, published 2005).

What was measured:
[1] = test system: RIF-1 tumors; test: Tumor oxygen by EPR oximetry at different irradiances; assay type: in vivo, mice; settings: light 3 hours post-injection; for tumor pO2 levels during treatment, low irradiance: 50 mW/cm^2 verteporfin, 30 mW/cm^2 ALA-PPIX; for tumor pO2 levels during treatment, high irradiance: 200 mW/cm^2 verteporfin, 150 mW/cm^2 ALA-PPIX
Description: Tumor oxygen changes were measured in mice treated either with aminolevulinic acid-induced protoporphyrin IX (ALA-PPIX) or verteporfin. Using electron paramagnetic resonance (EPR) oximetry described in Example 1, two irradiance levels were performed three hours post-injection of verteporfin or ALA-PPIX. Irradiance levels for ALA-PPIX were 30 mW/cm^2 and 150 mW/cm^2, whereas 50 mW/cm^2 and 200 mW/cm^2 were used for verteporfin.
EPR oximetry measured tumor oxygenation in RIF-1 tumor cells and in tumorigenic mice treated with photodynamic therapy, using synthetic lithium phthalocyanine (LiPc) as the oxygen-sensitive EPR material. Small particles between 50 and 200 μm in size were implanted into the animal tumors by 23-gauge needle at a depth of 1-3 mm within the tumor. Injections of LiPc were performed at least 24 hours prior to photodynamic therapy. Mice were placed in an L-band (1.2 GHz) EPR spectrometer with a microwave bridge that was custom-built for small animal experiments involving measurement of tissue pO2. Each mouse was anesthetized and placed in the EPR resonator for continuous measurement of the tumor tissue pO2 in 15-minute intervals. The external loop resonator was positioned over the tumor to record the EPR signal of injected LiPc within the tissue. Line widths of the EPR signal were converted to pO2 using a calibration curve determined for LiPc. The data were fit with a software program to match the Voigt line shape after the line widths were graphed as a function of time before, during, and after treatment.

[2] = test system: RIF-1 tumors; test: Tumor pO2 by Eppendorf electrode after ALA photodynamic therapy; assay type: in vivo, mice
Description: To independently confirm the results described above in ALA-PPIX-treated animals, Eppendorf pO2 electrode measurements were performed in the same tumor model. Two sections of animals with tumors were irradiated for 45 minutes. The first group of animals received ALA-injections 3 hours prior to light irradiation at a concentration of 100 mg/kg, and the second group received light alone. The light was at a wavelength of 633 nm, at a fluence of 150 mW/cm^2. Measurements were taken from the tumors immediately after the light was turned off. […] Collected data were pooled from three tracks in each animal with seven control animals (FIG. 7A) and 6 treated animals (FIG. 7B). The median pO2 for the control group was 3.7 mm Hg, while the median for the treated group was 8.7 mm Hg. Clearly, significant increases in tumor oxygenation occurred after treatment.

[3] = test system: RIF-1 tumors; test: Tumor pO2 by EPR oximetry during verteporfin photodynamic therapy; assay type: in vivo, mice
Description: Measurements of tumor partial pressure of oxygen (pO2) were taken in mice that harbored tumors derived from injection of transformed cells. Radiation-induced fibrosarcoma (RIF-1) cells were used for in vivo studies. RIF-1 cells were obtained from the National Cancer Institute (NCI) and originated from the laboratory of James B. Mitchell. The cells were grown in culture in RPMI 1640 cell culture medium, supplemented with 10% fetal bovine serum (FBS), L-glutamine, and appropriate antibiotics. The cells were not passaged more than four times from the original stock. Cell cultures were scaled up to large culture flasks, then removed and resuspended in medium lacking FBS and injected at 4×10^6 cells/mouse in a 50 μl volume. Intradermal injection delivered the cancer cells into the upper right leg of female C3h/HeJ mice (age 5-6 weeks) approximately 11-14 days before the anticipated treatment time.
Verteporfin was obtained from QLT Phototherapeutics Inc. (Vancouver, BC, Canada) for use as photosensitizer. The photoactive molecule is a benzoporphyrin derivative mono-acid ring ‘A’ (BPD-MA), which was suspended in a lipid preparation comprising 1.77% of BPD-MA and the remaining 98.23% composed of the lipids. Verteporfin was reconstituted in phosphate buffered saline (PBS) at a final concentration of 0.2 mg BPD-MA/ml, then injected into mice lateral tail vein to deliver a dose of 1 mg BPD-MA per kg of body weight. The drug was allowed to incubate for varying times prior to light exposure.
A diode laser system with 200 mW average power was used, at a wavelength of 690 nm (Applied Optronics, South Plainfield, Conn.). The beam was delivered to the tumor site in animals through a 140 μm fiber-optic, and was expanded onto the tumor in a circular top-hat beam, using a fiber-optic collimator (Thor Labs, North Newton, N.J.). The beam diameter for in vivo experiments was 1.1 cm, producing an irradiance of 200 mW/cm^2. Light treatment was given transcutaneously with shaven animals.
Animals were anesthetized by isoflurane at a concentration of 1.5% mixed with 26% oxygen in a continuous flow, delivered by inhalation. The animal was maintained at 37° C. on a heated water pad. Warm air was allowed to flow over the animal. In the first treatment group, tumors were exposed to light three hours after verteporfin injection. The second group received light only 15 minutes after injection. These animals were monitored for tumor pO2 before, during, and after treatment. The second experimental group is thought to be indicative of eliciting a vascular occlusion response, and contrasts effects from 3-hour photosensitizer incubation. The third group received light without prior photosensitizer injection.
Tumor pO2 was monitored with an oxygen-sensitive electron paramagnetic resonance (EPR) probe material, synthetic lithium phthalocyanine (LiPc), which was implanted into tissue and allowed for stable measurements of tissue pO2 over several weeks. […] LiPc molecules between 50 and 200 μm in diameter were implanted into the animal tumors with a 23-gauge needle at least 24 hours before photodynamic therapy, allowing for resolution of acute fluctuations in pO2 due to injection. The particles were implanted at a depth of 1-3 mm within the tumor.
The animals were placed in an L-band (1.2 GHz) EPR spectrometer with a custom-made microwave bridge for measurements of tissue pO2. The external loop resonator was positioned over the tumor to record the EPR signal of the LiPc from within the tissue. […]

[4] = test system: RIF-1 cells; test: Cell viability (MTS assay) after in vitro photodynamic therapy; assay type: cell-based, mouse; settings: 1 μg/ml BPD, 3-hour incubation, maximal light dose, MTS 24 hours after treatment
Description: RIF-1 cells were plated three days prior to treatment in black, plastic 96-well plates with a transparent bottom (Fisher Scientific, Springfield, N.J.) at a density of 5000 cells/200 μl medium/well. After 3 days of growth in 5% CO2 at 37° C. in a humidified incubator, the cells were used in photodynamic therapy. On the day of treatment, the medium was replaced with 100 μl/well of medium with 1 μg/ml BPD in the verteporfin preparation. After a 3-hour incubation, the BPD solution was removed and rinsed once with Hanks Balanced Salt Solution (HBSS), then 100 μl of fresh medium was added to the wells. Cells were irradiated in groups of four wells, with blank wells between the treated groups to ensure that each group of wells received the correct dose of light. […]
Surviving cells were assayed 24 hours after treatment, using the MTS assay kit (CellTiter 96®AQueous, Promega, Madison, Wis.). […] After incubation for 1 h at 37° C., the absorbance of the formazan product at […] was measured directly in an automated plate reader (ThermoMax, Molecular Devices, Menlo Park, Calif.). The quantity of formazan product as measured by the amount of 490 nm absorbance units is directly proportional to the number of living cells in culture, and absorbance values from groups of wells that received the same light dose were averaged. […]

[5] = test system: RIF-1 cells; test: In vitro cellular oxygen consumption rate by EPR oximetry; assay type: cell-based, mouse; settings: 1 μg/ml BPD, 3-hour incubation
Description: RIF-1 cells were plated three days prior to treatment in black, plastic 96-well plates with a transparent bottom (Fisher Scientific, Springfield, N.J.) at a density of 5000 cells/200 μl medium/well. After 3 days of growth in 5% CO2 at 37° C. in a humidified incubator, the cells were used in photodynamic therapy. On the day of treatment, the medium was replaced with 100 μl/well of medium with 1 μg/ml BPD in the verteporfin preparation. After a 3-hour incubation, the BPD solution was removed and rinsed once with Hanks Balanced Salt Solution (HBSS), then 100 μl of fresh medium was added to the wells. Cells were irradiated in groups of four wells, with blank wells between the treated groups to ensure that each group of wells received the correct dose of light. In each 96-well plate, squares of 4 were treated with increasing light doses with 8 groups/plate, including the control, non-irradiated group. Surviving cells were assayed for viability and/or cellular oxygen consumption.
Immediately following photodynamic therapy, cells were trypsinized, suspended in fresh medium, and cell viability determined by trypan blue dye exclusion prior to use in oxygen consumption measurement. […] The rate of oxygen consumption was measured using EPR. […] A Bruker EMX EPR spectrometer measured all spectra, operating at 9 GHz. […] The slope of the obtained data was determined by linear regression. […]

[6] = test system: RIF-1 tumors; test: Tumor regrowth assay, photodynamic therapy alone or combined with radiation; assay type: in vivo, mice
Description: The combination effect of photodynamic therapy and radiation therapy was examined in in vivo tumor models. Injection of PBD or saline (control) was given 3 hours prior to irradiation in all animals. Light at 690 nm wavelength was delivered t the photodynamic therapy treated animals while the animal was positioned in the irradiator cone. An irradiance of 133 mW/cm^2 was used for a total of 12 minutes, for a total dose of 100 J/cm^2. Radiation was administered at a single dose of 10 Gy (300 keV, 10 mA, HVL=2.33 Gy/min). The following groups were organized: (1) sham-irradiated controls, (2) radiation treatment alone, (3) photodynamic therapy alone, (4) radiation treatment followed by photodynamic therapy, and (5) photodynamic therapy with simultaneous radiation treatment. In Group 4, X-ray radiation was administered for the full 3-minute treatment period after the photosensitizer was injected and incubated in the animal for 3 hours, then irradiation was given for 12 minutes. The Group 5 animals received irradiation 3 hours after drug injection, and during the last three minutes of the irradiation. X-ray irradiation was also given to the tumor at the same time.
Irradiation using the 10 Gy dose using approximately 300 keV was delivered in 3 minutes from a Pantak Therapax 300 orthovoltage irradiator, using a 2 cm collimation cone. This cone was contacted with a region of the mouse leg surrounding the tumor. The end of the collimation cone was comprised of transparent plastic, allowing radiation and treatment to occur at the same time (required for Group 5, where photodynamic therapy and radiation were simultaneously administered). All animals were treated with the cone in place, as well as Group 1 sham-irradiated mice and Group 3 photodynamic therapy alone mice. This was performed to ensure equal doses of light were given to all groups, which included changes in the beam from reflection and refraction through the irradiator cone.
Each group of mice were assayed for tumor regrowth following combined radiation/photodynamic therapy, radiation alone, or photodynamic therapy alone. The resulting treatment effect was assayed by calculation of tumor volume, as calculated by measurement of the three major axis dimensions: Volume≅Length×Width×Height/2 The time for a tumor to reach double its volume on the day of treatment was calculated for each individual animal separately, by estimating the data by a linear fit to logarithmic growth curves versus time. The average values from these times to double in volume were determined for each group of mice. Analysis of the tumor regrowth data, estimates of the mean double time (including standard deviation), and mice heterogeneity was achieved by generating individual growth curve data and fitting with a mixed effect model. It was assumed that after day 3, the tumor re-grows exponentially, which corresponds to a linear function when plotted on a semi-logarithmic graph. The time for a tumor to reach double its volume on the day of treatment was calculated for each group along with the respective standard deviation. The standard error gives rise to the group comparison using X-test to account for significant differences between the mean values of the different treatment groups.

[7] = Group 4, radiation (10 Gy) then PDT
[8] = Group 5, PDT with simultaneous radiation (10 Gy)

Compound: NCC(=O)CCC(=O)O [ALA, 5-aminolevulinic acid]
- tumor pO2 levels during treatment, low irradiance [1]: remained the same
- tumor pO2 levels during treatment, high irradiance [1]: a measurable drop in oxygen
- median tumor pO2 immediately after light ([2]; 100 mg/kg ALA 3 hours prior to 633 nm light, 150 mW/cm^2 for 45 minutes, light-only control median 3.7): 8.7 mm Hg
- increase in tumor oxygenation ([2]; EPR oximetry and Eppendorf electrode, treated vs control): more than two-fold increases

Compound: benzoporphyrin derivative mono-acid ring ‘A’ (BPD-MA) [Verteporfin]
- tumor pO2 at 1 h post-treatment ([3]; 1 mg/kg BPD-MA i.v., light 3 hours after injection): returned to within control, or pre-treatment values
- final tumor pO2 immediately after treatment ([3]; 1 mg/kg BPD-MA i.v., light 3 hours after injection, 690 nm, 144 J/cm^2, p=0.048 vs control): 15.2±6.9 mm Hg
- initial tumor pO2 ([3]; 1 mg/kg BPD-MA i.v., light 3 hours after injection, value before light): 2.8±1.0 mm Hg
- average tumor pO2 prior to light exposure ([3]; 1 mg/kg BPD-MA injected 15 min prior to irradiation): 6.8±1.6 mm Hg
- average tumor pO2 immediately following treatment ([3]; 1 mg/kg BPD-MA injected 15 min prior to irradiation (vascular targeting)): 4.1±0.3 mm Hg
- cell survival [4]: 20±5%
- oxygen consumption rate ([5]; highest light dose 16 J/cm^2): 0.37±0.04 mmol/min/10^6 cells
- oxygen consumption as % of control oxygen consumption rates ([5]; maximal light dose): 21±4%
- Re-growth Delay in Doubling Time ([6]; Group 3, PDT only): 3.2 ± 1.7
- slope of the natural logarithm of tumor volume versus days ([6]; Group 3, PDT only): 0.13
- Time for Tumor to Double Initial Volume ([6]; Group 3, PDT only, injection 3 hours before 690 nm light, 100 J/cm^2): 8.9 ± 1.7
- Re-growth Delay in Doubling Time [6, 7]: 5.4 ± 1.4
- Time for Tumor to Double Initial Volume [6, 7]: 11.0 ± 1.5
- slope of the natural logarithm of tumor volume versus days ([6]; Group 4, radiation then PDT): 0.13
- slope of the natural logarithm of tumor volume versus days ([6]; Group 5, PDT with simultaneous radiation): 0.11
- Re-growth Delay in Doubling Time [6, 8]: 8.1 ± 1.5
- Time for Tumor to Double Initial Volume [6, 8]: 13.7 ± 1.6
- tumor pO2 levels during treatment, low irradiance [1]: remained the same
- tumor pO2 levels during treatment, high irradiance [1]: remained the same
